Structures can show the parent of a compound that is named as a salt. Bounds are passed on as bounds.

Experiment [1] concerns CD3/CD28 induced IL-2 in human T-Blasts. In words: T-Blasts CD3/CD28 induced IL-2 assay. In kind it is cell-based. The conditions noted are these: read-out: CD3/CD28-stimulated IL2 in T-blasts EC50. A digest of the protocol:
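PHA-generated human T-blasts, 2×10^5 per well, preincubated 30 min with 8-point 1/3 compound dilutions in duplicate, then stimulated with anti-CD3+anti-CD28 (5 μg/mL final) for 24 h at 37° C. Supernatant IL-2 measured; MTT toxicity run on remaining cells.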

The target in experiment [2] is T1, PKCα (Homo sapiens, UniProt P17252).
T1 construct: His6; purchased Millipore; host or cells: baculovirus in Sf21 cells
Kind of experiment: In vitro enzyme assay (time-resolved fluorescence kinase assay), PKCα, 100 μM ATP. The format is biochemical. Particulars: 100 μM ATP; read-out: PKCα enzyme IC50. A digest of the protocol:
(§1)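 Read-out was time-resolved fluorescence, corrected for a minus-enzyme blank and converted to percent activity relative to enzyme without drug. They were stopped with EDTA.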

Experiment [3] deals with T2, PKCθ (Homo sapiens, UniProt Q04759).
T2 construct: His6; purchased Millipore; host or cells: baculovirus in Sf21 cells
Kind of experiment: In vitro enzyme assay (time-resolved fluorescence kinase assay), PKCθ, 100 μM ATP. The format is biochemical. A digest of the protocol: as §1

T2 sequence (Q04759 whole entry): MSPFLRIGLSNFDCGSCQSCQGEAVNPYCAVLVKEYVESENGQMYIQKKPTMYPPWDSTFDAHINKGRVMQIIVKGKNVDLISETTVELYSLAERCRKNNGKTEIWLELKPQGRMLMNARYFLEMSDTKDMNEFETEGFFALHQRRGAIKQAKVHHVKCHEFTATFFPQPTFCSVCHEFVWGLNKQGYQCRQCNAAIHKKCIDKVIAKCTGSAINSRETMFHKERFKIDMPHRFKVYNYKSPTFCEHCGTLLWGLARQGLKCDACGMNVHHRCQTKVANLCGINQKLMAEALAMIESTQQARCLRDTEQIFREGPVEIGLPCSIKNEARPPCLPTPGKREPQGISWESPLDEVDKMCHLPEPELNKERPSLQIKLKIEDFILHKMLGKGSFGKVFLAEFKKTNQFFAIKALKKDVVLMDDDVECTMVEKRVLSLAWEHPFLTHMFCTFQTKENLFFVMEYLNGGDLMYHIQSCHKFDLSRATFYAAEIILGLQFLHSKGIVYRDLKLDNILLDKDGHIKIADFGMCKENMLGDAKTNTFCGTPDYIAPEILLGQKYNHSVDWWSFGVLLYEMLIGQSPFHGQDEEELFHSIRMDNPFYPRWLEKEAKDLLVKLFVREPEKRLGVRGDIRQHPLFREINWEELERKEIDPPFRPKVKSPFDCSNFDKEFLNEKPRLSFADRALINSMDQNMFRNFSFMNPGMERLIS

As to `CC1C(=O)NN=C2COc3ccc(C4CCNCC4)cc3N21` (stereo not drawn) [Example 71, 4-Methyl-6-piperidin-4-yl-2,10-dihydro-9-oxa-1,2,4a-triaza-phenanthren-3-one trifluoroacetic acid], the EC50 in experiment [1] was < 250 nM. For the same compound, the IC50 (commonly the concentration that inhibits the measured activity by half) in experiment [2] was 1000 to 10000 nM; in experiment [3], < 250 nM.
Take `CC1C(=O)NN=C2COc3cc(F)c(C4CCNCC4)cc3N21` (stereo not drawn) [Example 72]: the EC50 in experiment [1] was 1000 to 10000 nM. In addition, the figures for the IC50 in experiment [2] and in experiment [3] were 1000 to 10000 nM and 250 to 1000 nM, respectively.
On to `CC1CNCCC1c1ccc2c(c1)N1C(=NNC(=O)C1C)CO2` (stereo not drawn) [Example 73], for which the EC50 in experiment [1] lay in the range of 1000 to 10000 nM. Moreover, the IC50 in experiment [2] lay within 1000 to 10000 nM; in experiment [3], 250 to 1000 nM.
In the case of `CC1C(=O)NN=C2COc3ccc(C4CCNCC4(C)C)cc3N21` (stereo not drawn) [Example 74], the EC50 in experiment [1] lay within 250 to 1000 nM. Further, the IC50 in experiment [2] was 1000 to 10000 nM; in experiment [3], < 250 nM.
As for `Cc1cc2c(cc1C1CCNCC1)N1C(=NNC(=O)C1C)CO2` (stereo not drawn) [Example 75, 4,7-Dimethyl-6-piperidin-4-yl-2,10-dihydro-9-oxa-1,2,4a-triaza-phenanthren-3-one trifluoroacetic acid], in experiment [1], the EC50 lay in the range of 250 to 1000 nM. The IC50 in experiment [2] is 1000 to 10000 nM; in experiment [3], < 250 nM.
Take `CC(C)c1cc2c(cc1C1CCNCC1)N1C(=NNC(=O)C1C)CO2` (stereo not drawn) [Example 76, 7-Isopropyl-4-methyl-6-piperidin-4-yl-2,10-dihydro-9-oxa-1,2,4a-triaza-phenanthren-3-one trifluoroacetic acid]: the EC50 in experiment [1] fell in the range of 250 to 1000 nM. Besides, the IC50 in experiment [2] lay within 1000 to 10000 nM; in experiment [3] it was 250 to 1000 nM.
Turning to `CC1C(=O)NN=C2COc3cc(C4CC4)c(C4CCNCC4)cc3N21` (stereo not drawn) [Example 77, 7-Cyclopropyl-4-methyl-6-piperidin-4-yl-2,10-dihydro-9-oxa-1,2,4a-triaza-phenanthren-3-one trifluoroacetic acid], the EC50 in experiment [1] was in the range of 250 to 1000 nM. For the same compound, the IC50 in experiment [2] was 1000 to 10000 nM; in experiment [3] it was < 250 nM.
The like results for `CC1C(=O)NN=C2COc3ccc(CC4CNC4)cc3N21` (stereo not drawn) [Example 78, 6-Azetidin-3-ylmethyl-4-methyl-2,10-dihydro-9-oxa-1,2,4a-triaza-phenanthren-3-one trifluoroacetic acid] were, in that order, < 250 nM, 1000 to 10000 nM and < 250 nM.
For `CC1C(=O)NN=C2COc3cc(-c4ccccc4)c(NC4(C)CNC4)cc3N21` (stereo not drawn) [Example 79, 4-Methyl-6-(3-methyl-azetidin-3-ylamino)-7-phenyl-2,10-dihydro-9-oxa-1,2,4a-triaza-phenanthren-3-one trifluoroacetic acid], the EC50 in experiment [1] fell in the range of 1000 to 10000 nM. Moreover, the IC50 lay within 1000 to 10000 nM in experiment [2] and 250 to 1000 nM in experiment [3].
`CC1C(=O)NN=C2COc3cc(F)c(OC4(C)CNC4)cc3N21` (stereo not drawn) [Example 80, 7-Fluoro-4-methyl-6-(3-methyl-azetidin-3-yloxy)-2,10-dihydro-9-oxa-1,2,4a-triaza-phenanthren-3-one trifluoroacetic acid]: the EC50 in experiment [1] was < 250 nM. Moreover, the IC50 in experiment [2] was 1000 to 10000 nM; in experiment [3] it was < 250 nM.
Take `CC(C)c1cc2c(cc1OC1(C)CNC1)N1C(=NNC(=O)C1C)CO2` (stereo not drawn) [Example 82, 7-Isopropyl-4-methyl-6-(3-methyl-azetidin-3-yloxy)-2,10-dihydro-9-oxa-1,2,4a-triaza-phenanthren-3-one trifluoroacetic acid]: the EC50 in experiment [1] was < 250 nM. Also, the IC50 in experiment [2] is 250 to 1000 nM; in experiment [3] it was < 250 nM.
On to `Cc1cc2c(cc1OC1(C)CNC1)N1C(=NNC(=O)C1C)CO2` (stereo not drawn) [Example 83, 4,7-Dimethyl-6-(3-methyl-azetidin-3-yloxy)-2,10-dihydro-9-oxa-1,2,4a-triaza-phenanthren-3-one trifluoroacetic acid], for which the EC50 in experiment [1] is < 250 nM. In addition, the values for the half-maximal inhibitory concentration (IC50) in experiment [2] and in experiment [3] were 1000 to 10000 nM and < 250 nM, respectively.
In the case of `CC1C(=O)NN=C2COc3cc(F)c(NC4(C)CNC4)cc3N21` (stereo not drawn) [Example 84, 8-Fluoro-1-methyl-9-((3-methylazetidin-3-yl)amino)-3,5-dihydrobenzo[5,6][1,4]oxazino[3,4-c][1,2,4]triazin-2(1H)-one trifluoroacetic acid], in experiment [1], the EC50 is < 250 nM. The IC50 in experiment [2] was 1000 to 10000 nM; in experiment [3], < 250 nM.
On to `CC1C(=O)NN=C2COc3cc(Br)c(NC4CNC4)cc3N21` (stereo not drawn) [Example 85, 6-(Azetidin-3-ylamino)-7-bromo-4-methyl-2,10-dihydro-9-oxa-1,2,4a-triaza-phenanthren-3-one trifluoroacetic acid], for which, in experiment [1], the EC50 lay within 250 to 1000 nM. Moreover, the IC50 in experiment [2] was 1000 to 10000 nM; in experiment [3], < 250 nM.
For the compound `CC1C(=O)NN=C2COc3ccc(C4CCNC(Cc5ccccc5)C4)cc3N21` (stereo not drawn) [Example 86, 9-(2-Benzylpiperidin-4-yl)-1-methyl-3,5-dihydrobenzo[5,6][1,4]oxazino[3,4-c][1,2,4]triazin-2(1H)-one trifluoroacetic acid], in experiment [1], the EC50 is < 250 nM. Also, the IC50 in experiment [2] is 1000 to 10000 nM; in experiment [3] it was < 250 nM.
Take `Cc1ccccc1-c1cc2c(cc1N(C)C1(C)CN(C)C1)N1C(=NNC(=O)C1C)CO2` (stereo not drawn) [Example 88]: in experiment [1], the EC50 was < 250 nM. For the same compound, the IC50 in experiment [2] and in experiment [3] was < 250 nM in each case.
For `CC1C(=O)NN=C2COc3cc(-c4ccccc4)c(N(C)C4(C)CNC4)cc3N21` (stereo not drawn) [Example 90], the EC50 in experiment [1] is < 250 nM. For the same compound, the IC50 in experiment [2] and in experiment [3] was < 250 nM throughout.
For the compound `CC(C)N1CC(C)(N(C)c2cc3c(cc2-c2ccccc2)OCC2=NNC(=O)C(C)N23)C1` (stereo not drawn) [Example 91], the EC50 in experiment [1] is < 250 nM. The IC50 is 250 to 1000 nM in experiment [2] and < 250 nM in experiment [3].
For `CC1C(=O)NN=C2COc3cc(-c4ccccc4)c(N(C)C4(C)CN(Cc5ccccc5)C4)cc3N21` (stereo not drawn) [Example 92], in experiment [1], the EC50 was < 250 nM. Moreover, the IC50 in experiment [2] was 250 to 1000 nM; in experiment [3] it was < 250 nM.
As for `CCN1CC(C)(N(C)c2cc3c(cc2-c2ccccc2)OCC2=NNC(=O)C(C)N23)C1` (stereo not drawn) [Example 93], in experiment [1], the EC50 fell in the range of 1000 to 10000 nM. The IC50 in experiment [2] is 1000 to 10000 nM; in experiment [3], < 250 nM.
Regarding `CC1C(=O)NN=C2COc3cc(-c4ccccc4)c(N(C)C4(C)CN(C5CCOCC5)C4)cc3N21` (stereo not drawn) [Example 94], in experiment [1], the EC50 was < 250 nM. Moreover, the IC50 is 250 to 1000 nM in experiment [2] and < 250 nM in experiment [3].
`CC1C(=O)NN=C2COc3cc(-c4ccccc4)c(N(C)C4(C)CN(CC5CCOCC5)C4)cc3N21` (stereo not drawn) [Example 95]: the EC50 in experiment [1] was < 250 nM. For the same compound, the values for the IC50 in experiment [2] and in experiment [3] were 250 to 1000 nM and < 250 nM, respectively.
Turning to `CC1C(=O)NN=C2CSc3ccc(NC4CNC4)cc3N21` (stereo not drawn) [Example 97, 6-(Azetidin-3-ylamino)-4-methyl-2,10-dihydro-9-thia-1,2,4a-triaza-phenanthren-3-one hydrochloric acid salt], the EC50 in experiment [1] was < 250 nM. In addition, the IC50 is 1000 to 10000 nM in experiment [2] and < 250 nM in experiment [3].
As to `CC1C(=O)NN=C2COc3cc(C(F)(F)F)c(CC4CNC4)cc3N21` (stereo not drawn) [Example 99, 6-Azetidin-3-ylmethyl-4-methyl-7-trifluoromethyl-2,10-dihydro-9-oxa-1,2,4a-triaza-phenanthren-3-one trifluoroacetic acid], the EC50 in experiment [1] fell in the range of 250 to 1000 nM. In addition, the figures for the IC50 in experiment [2] and in experiment [3] were 1000 to 10000 nM and < 250 nM, respectively.
As to `CC1C(=O)NN=C2COc3cc4ccn(C5CNC5)c4cc3N21` (stereo not drawn) [Example 103, 10-(Azetidin-3-yl)-1-methyl-5,10-dihydro-1H-[1,2,4]triazino[4′,3′:4,5][1,4]oxazino[2,3-f]indol-2(3H)-one trifluoroacetic acid], the EC50 in experiment [1] was in the range of 250 to 1000 nM. The IC50 in experiment [2] is 1000 to 10000 nM; in experiment [3], < 250 nM.
As for `CC1C(=O)NN=C2COc3cc(Oc4ccccc4)c(NC4CNC4)cc3N21` (stereo not drawn) [Example 106, 6-(Azetidin-3-ylamino)-4-methyl-7-phenoxy-2,10-dihydro-9-oxa-1,2,4a-triaza-phenanthren-3-one trifluoroacetic acid], the EC50 in experiment [1] was in the range of 250 to 1000 nM. For the same compound, the IC50 was 1000 to 10000 nM in experiment [2] and < 250 nM in experiment [3].
The like results for `CC1C(=O)NN=C2COc3cc(C(F)(F)F)c(OC4(C)CNC4)cc3N21` (stereo not drawn) [Example 107, 4-Methyl-6-(3-methyl-azetidin-3-yloxy)-7-trifluoromethyl-2,10-dihydro-9-oxa-1,2,4a-triaza-phenanthren-3-one trifluoroacetic acid] were, in that order, < 250 nM, < 250 nM and < 250 nM.
For the compound `CC1C(=O)NN=C2CCc3ccc(NC4CNC4)cc3N21` (stereo not drawn) [Example 108, 9-(Azetidin-3-ylamino)-1-methyl-5,6-dihydro-1H-[1,2,4]triazino[4,3-a]quinolin-2(3H)-one hydrochloric acid], the EC50 in experiment [1] is < 250 nM. In addition, the IC50 was 250 to 1000 nM in experiment [2] and < 250 nM in experiment [3].
On to `C[C@H](c1ccc2c(c1)N1C(=NNC(=O)[C@H]1C)CO2)C1CNC1` [Example 110], for which the EC50 in experiment [1] is 250 to 1000 nM. The IC50 lay in the range of 1000 to 10000 nM in experiment [2] and 250 to 1000 nM in experiment [3].
Turning to `C[C@@H]1C(=O)NN=C2COc3ccc([C@H](C)C4CNC4)cc3N21` [Example 111], the EC50 in experiment [1] fell in the range of 250 to 1000 nM. Also, the IC50 in experiment [2] is 1000 to 10000 nM; in experiment [3] it was < 250 nM.
The like results for `CC1C(=O)NN=C2COc3cc(C(C)C(F)(F)F)c(NC4CNC4)cc3N21` (stereo not drawn) [Example 112, 9-(Azetidin-3-ylamino)-1-methyl-8-(1,1,1-trifluoropropan-2-yl)-3,5-dihydrobenzo[5,6][1,4]oxazino[3,4-c][1,2,4]triazin-2(1H)-one trifluoroacetic acid salt] were, in that order, 1000 to 10000 nM, 1000 to 10000 nM and 1000 to 10000 nM.

(Values after patent US9115151B2, “Substituted 2,10-dihydro-9-oxa-1,2,4A-triazaphenanthren-3-ones and uses thereof” (AbbVie Inc., priority 2012, dated 2015).)
